Results: PMC3922309, “Differential roles of tryptophan residues in conformational stability of Porphyromonas gingivalis HmuY hemophore” (BMC Biochemistry, 2014)

Experiments:
HmuY [1] = biological target: T1, HmuY (Porphyromonas gingivalis, UniProt A2BCY8); assay: heme titration of apoprotein (UV-visible / Trp fluorescence quenching), one-site model; type: binding
T1 construct: polypeptide lacking the first 25 residues, plasmid pHmuY11, expressed in Escherichia coli ER2566, purified from soluble lysate
T1 sequence (A2BCY8 entry or part of it): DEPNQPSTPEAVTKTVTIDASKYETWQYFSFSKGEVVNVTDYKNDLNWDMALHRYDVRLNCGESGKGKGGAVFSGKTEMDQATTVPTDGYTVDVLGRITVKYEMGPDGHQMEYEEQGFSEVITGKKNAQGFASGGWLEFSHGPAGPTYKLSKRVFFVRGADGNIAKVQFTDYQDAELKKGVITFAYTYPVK

HmuY [2] = biological target: HmuY (Porphyromonas gingivalis, UniProt A2BCY8, W73Y); assay: biochemical
Chain of HmuY (Porphyromonas gingivalis, UniProt A2BCY8, W73Y) (A2BCY8 26-216 W73Y): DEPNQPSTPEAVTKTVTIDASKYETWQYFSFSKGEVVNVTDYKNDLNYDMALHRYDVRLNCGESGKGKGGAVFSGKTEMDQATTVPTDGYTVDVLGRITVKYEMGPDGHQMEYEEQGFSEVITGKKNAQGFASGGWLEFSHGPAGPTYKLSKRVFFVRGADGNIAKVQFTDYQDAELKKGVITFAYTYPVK

HmuY [3] = biological target: HmuY (Porphyromonas gingivalis, UniProt A2BCY8, W51Y); assay: biochemical
Chain of HmuY (Porphyromonas gingivalis, UniProt A2BCY8, W51Y) (A2BCY8 26-216 W51Y): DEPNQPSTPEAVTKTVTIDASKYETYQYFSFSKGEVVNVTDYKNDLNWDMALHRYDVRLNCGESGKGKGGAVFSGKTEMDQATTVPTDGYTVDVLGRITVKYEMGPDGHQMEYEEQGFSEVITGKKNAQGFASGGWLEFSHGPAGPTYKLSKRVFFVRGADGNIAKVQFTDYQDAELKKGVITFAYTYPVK

HmuY [4] = biological target: HmuY (Porphyromonas gingivalis, UniProt A2BCY8, W73A); assay: biochemical
Chain of HmuY (Porphyromonas gingivalis, UniProt A2BCY8, W73A) (A2BCY8 26-216 W73A): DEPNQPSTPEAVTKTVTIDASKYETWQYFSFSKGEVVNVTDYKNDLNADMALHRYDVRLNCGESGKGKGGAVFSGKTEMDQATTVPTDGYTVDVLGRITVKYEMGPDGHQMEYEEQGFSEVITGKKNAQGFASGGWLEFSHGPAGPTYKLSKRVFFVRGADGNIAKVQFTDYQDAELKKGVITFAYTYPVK

HmuY [5] = biological target: HmuY (Porphyromonas gingivalis, UniProt A2BCY8, W161Y); assay: biochemical
Chain of HmuY (Porphyromonas gingivalis, UniProt A2BCY8, W161Y) (A2BCY8 26-216 W161Y): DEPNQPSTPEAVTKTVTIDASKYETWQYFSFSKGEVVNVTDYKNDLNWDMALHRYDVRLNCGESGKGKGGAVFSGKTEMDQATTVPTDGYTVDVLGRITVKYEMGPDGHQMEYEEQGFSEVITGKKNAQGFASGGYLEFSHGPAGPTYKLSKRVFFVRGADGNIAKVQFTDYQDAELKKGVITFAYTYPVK

HmuY [6] = biological target: HmuY (Porphyromonas gingivalis, UniProt A2BCY8, W51A); assay: biochemical
Chain of HmuY (Porphyromonas gingivalis, UniProt A2BCY8, W51A) (A2BCY8 26-216 W51A): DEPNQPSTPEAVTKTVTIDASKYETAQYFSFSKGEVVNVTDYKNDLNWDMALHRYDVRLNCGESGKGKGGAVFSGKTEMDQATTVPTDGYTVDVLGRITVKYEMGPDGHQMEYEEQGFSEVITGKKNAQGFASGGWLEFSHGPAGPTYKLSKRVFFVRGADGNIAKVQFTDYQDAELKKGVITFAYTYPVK

HmuY [7] = biological target: HmuY (Porphyromonas gingivalis, UniProt A2BCY8, W161A); assay: biochemical
Chain of HmuY (Porphyromonas gingivalis, UniProt A2BCY8, W161A) (A2BCY8 26-216 W161A): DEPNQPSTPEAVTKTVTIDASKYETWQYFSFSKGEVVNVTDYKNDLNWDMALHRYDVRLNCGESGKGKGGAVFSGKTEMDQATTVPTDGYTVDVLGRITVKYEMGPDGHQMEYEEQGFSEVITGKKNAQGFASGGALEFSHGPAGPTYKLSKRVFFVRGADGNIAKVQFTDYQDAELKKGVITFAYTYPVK

C=CC1=C(C)C2=Cc3c(C=C)c(C)c4[n]3[Fe]([Cl])[n]3c(c(C)c(CCC(=O)O)c3=CC3=NC(=C4)C(C)=C3CCC(=O)O)=CC1=N2 [heme]
Kd (HmuY [1]): 296 ± 12 nM | Kd (HmuY [2]): 238 ± 12 nM | Kd (HmuY [3]): 216 ± 7 nM | Kd (HmuY [4]): 229 ± 8 nM | Kd (HmuY [5]): 235 ± 11 nM | Kd (HmuY [6]): 303 ± 13 nM | Kd (HmuY [7]): 323 ± 16 nM
